Like-named read-outs stand apart in the source and are kept apart here.
Experiments:
rats = experiment: Maximal electroshock (MES) model in rats, p.o.;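 note: rat MES model gauging antiepileptic efficacy versus generalized and partial seizures after oral dosing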; format: in vivo; settings: Rattus norvegicus, po, read-out: RATS MES 50
in vivo = settings: mouse, in vivo, ip
Experimental: (§1) Neurotoxicity of the claimed agents was also assessed in mice (i.p. administration) by the rotorod ataxia test and/or in rats (p.o. administration) by positional sense test and gait stance test. […] The term quantitating the neurotoxicity is the medial neurological toxic dose (TD50), was determined in the above tests.

mice = experiment: in vivo
Experimental: as §1

male ICR albino mice = experiment: Hypobaric hypoxia survival time in mice; format: in vivo
Outline: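 Drugs given i.p. 1 h before hypobaric hypoxia at 100 mmHg; time to respiratory arrest recorded, cutoff 15 min. Effect expressed as percent of saline- or vehicle-control survival time. Each dose tested in two groups of 4 mice, controls run before and after.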

Male mongolian gerbils = experiment: Global brain ischemia in gerbils (CA1 pyramidal neurons); format: in vivo; settings: 3 injections, fraction of hippocampi protected from ischemia, 14 days post-ischemia
Outline: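 Global ischemia induced by clamping each artery for 5 min. Compound given ip 2 min after clamp removal, then daily for the next 2 days (3 doses). CA1 pyramidal neurons counted 14 days post-ischemia in H&E-stained anterior hippocampal sections; percent protection is the fraction of hippocampi protected at the stated dose.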

hypoxic rat [1] = experiment: Amphetamine-induced stereotype behavior in hypoxic rat, Experiments 2A and 2B; format: in vivo; settings: for total number of lateral head movements per minute: Exp 2A, 0.5mg/kg daily 29 days, D-amphetamine sulfate 0.5mg/kg s.c., 45-60 min after, Mean ± SEM; for lateral head movements: Exp 2B, 0.3mg/kg daily i.p. 14 days, 12 month-old rats
Experimental: Experiment 2A. Wistar male rats, 15-19 month-old, were exposed to a single hypoxic episode as described above. […] Rats pretreated for 29 days with daily doses of the test drugs (0.5mg/kg), received a sub-cutaneous (s.c.) injection of D-amphetamine sulfate at a dose of 0.5mg/kg. D-amphetamine is known to cause an enhancement of the effects of CNS dopamine by a mechanism involving dopamine release, and blockage of its uptake and its metabolism by MAO. The behavioral manifestation of amphetamine action is a stereotypic pattern of lateral head movements.
Counts of lateral head movements were taken over two successive intervals of 1 min each, 45-60 min after the injection of amphetamine and then averaged.
Experiment 2B. […] The drugs were given by i.p. injection. • 3) Duration of the treatment: 14 days.

hypoxic rat [2] = experiment: Passive avoidance test in hypoxic rat, Experiment 3A; format: in vivo; settings: Exp 3A, day 13 of drug treatment 0.5mg/kg/Day, Mean ± SEM; for latency of response, 48h after electroshock: maximum 300 seconds
Experimental: Experiment 3A: Wistar male rats, 15-19 month-old, were exposed to a single hypoxic episode as described above. […] The passive avoidance test was performed on day 13 after initiation the drug treatment. The apparatus consisted of a lit chamber that can be separated from a dark chamber by a sliding door. At training, a rat is placed in the lit chamber for 30 seconds, then the door is opened. The rat moves to the dark chamber after a short delay - the latency, that is recorded. Upon entry into the dark chamber, the door is shut closed and a 0.3-mA footshock is delivered for 3 seconds by a Grass S-88 stimulator. Retention of the experience is determined after 48 hours by repeating the test and recording the latency to an arbitrary maximum of 300 seconds. Longer latencies are ascribed to retention of memory and improved cognition.

[3] = 50 mg/kg ip one hour prior to hypoxia
[4] = 100 mg/kg ip one hour prior to hypoxia
[5] = dose cell empty (line below 50 mg/kg ip)

| Compound | ED50 (rats; rats, p.o., Table 15) [mg/kg] | TD50 (in vivo; MICE TD50) [mg/kg] | MICE TD50 (mice; mouse, in vivo, ip) [mg/kg] | PROTECTION % OF RESPECTIVE CONTROL (male ICR albino mice; [3]) [% OF RESPECTIVE CONTROL] | PROTECTION % OF RESPECTIVE CONTROL (male ICR albino mice; [4]) [% OF RESPECTIVE CONTROL] | PROTECTION % OF RESPECTIVE CONTROL (male ICR albino mice; [5]) [% OF RESPECTIVE CONTROL] | PERCENT PROTECTION (Male mongolian gerbils; 0.1 mg/kg ip) [%] | PERCENT PROTECTION (Male mongolian gerbils; 1.0 mg/kg ip) [%] | PERCENT PROTECTION (Male mongolian gerbils; 10.0 mg/kg ip) [%] | total number of lateral head movements per minute (hypoxic rat [1]) [per minute] | lateral head movements (hypoxic rat [1]) | latency of response, before electroshock (hypoxic rat [2]) [s] | latency of response, 48h after electroshock (hypoxic rat [2]) [s] | ED50 (rats) [mg/kg] | TD50 (in vivo) [mg/kg] | MICE TD50 (mice; mice, i.p., Table 16) [mg/kg] |
| --- | --- | --- | --- | --- | --- | --- | --- | --- | --- | --- | --- | --- | --- | --- | --- | --- |
| CC(=O)N[C@@H]1CCc2ccccc21 [Example 18, (R)-N-Acetyl-1-aminoindan] | 14 | 75 | 75 | 271±193 | 397±244 | 383±233 | 25.0 | 25.0 | 66.7 | – | – | – | – | – | – | – |
| N[C@@H]1CCc2ccccc21 [R-AI, (R)-1-aminoindan] | – | – | – | 358±224 | 395±199 | 411±174 | 25.0 | 25.0 | 25.0 | 108 ± 3 | 92 ± 3 | 53 ± 6 | 245 ± 33 | 184 | 71 | 71 |
| C#CCN(C)[C@H](C)Cc1ccccc1 [deprenyl] | – | – | – | – | – | – | – | – | – | 76 ± 3 | 77 ± 3 | 53 ± 7 | 153 ± 37 | – | – | – |

— patent EP0738149B1 (priority 1994, dated 1995)
